# Results as given in ChEMBL document CHEMBL4138123, “Design, synthesis and biological evaluation of novel pyrazolochalcones as potential modulators of PI3K/Akt/mTOR pathway and inducers of apoptosis in breast cancer cells” (Eur J Med Chem, 2017).
# Key:
# COLO 205 [1] = assay: Cytotoxicity against human COLO205 cells assessed as growth inhibition after 48 hrs by sulforhodamine B assay; type: functional; details: COLO 205, 48 h
# HCT-15 = assay: Cytotoxicity against human HCT15 cells assessed as growth inhibition after 48 hrs by sulforhodamine B assay; type: functional; details: HCT-15, 48 h
# U-251 = assay: Cytotoxicity against human U251 cells assessed as growth inhibition after 48 hrs by sulforhodamine B assay; type: functional; details: U-251, 48 h
# UACC-257 = assay: Cytotoxicity against human UACC257 cells assessed as growth inhibition after 48 hrs by sulforhodamine B assay; type: functional; details: UACC-257, 48 h
# MDA-MB-231 [2] = assay: Cytotoxicity against human MDA-MB-231 cells assessed as growth inhibition after 48 hrs by MTT assay; type: functional, cell-based; details: MDA-MB-231, 48 h
# OVCAR-8 [3] = assay: Cytotoxicity against human OVCAR8 cells assessed as cell growth at 0.01 uM after 48 hrs by sulforhodamine B assay relative to control; type: functional; details: OVCAR-8, 48 h, read-out: Activity
# UACC-62 = assay: Cytotoxicity against human UACC62 cells assessed as cell growth at 0.01 uM after 48 hrs by sulforhodamine B assay relative to control; type: functional; details: UACC-62, 48 h, read-out: Activity
# SK-MEL-28 [4] = assay: Cytotoxicity against human SK-MEL-28 cells assessed as cell growth at 0.01 uM after 48 hrs by sulforhodamine B assay relative to control; type: functional; details: SK-MEL-28, 48 h, read-out: Activity
# SF-268 [5] = assay: Cytotoxicity against human SF268 cells assessed as cell growth at 0.01 uM after 48 hrs by sulforhodamine B assay relative to control; type: functional; details: SF-268, 48 h, read-out: Activity
# COLO 205 [6] = assay: Cytotoxicity against human COLO205 cells assessed as cell growth at 0.01 uM after 48 hrs by sulforhodamine B assay relative to control; type: functional; details: COLO 205, 48 h, read-out: Activity
# MOLT-4 = assay: Cytotoxicity against human MOLT4 cells assessed as cell growth at 0.01 uM after 48 hrs by sulforhodamine B assay relative to control; type: functional; details: MOLT-4, 48 h, read-out: Activity
# MDA-MB-231 [7] = assay: Cytotoxicity against human MDA-MB-231 cells assessed as cell growth at 0.01 uM after 48 hrs by sulforhodamine B assay relative to control; type: functional; details: MDA-MB-231, 48 h, read-out: Activity
# Hs-578T = assay: Cytotoxicity against human Hs 578T cells assessed as cell growth at 0.01 uM after 48 hrs by sulforhodamine B assay relative to control; type: functional; details: read-out: Activity
# MDA-MB-468 [8] = assay: Cytotoxicity against human MDA-MB-468 cells assessed as cell growth at 0.01 uM after 48 hrs by sulforhodamine B assay relative to control; type: functional; details: MDA-MB-468, 48 h, read-out: Activity
# SR = assay: Cytotoxicity against human SR cells assessed as cell growth at 0.1 uM after 48 hrs by sulforhodamine B assay relative to control; type: functional; details: read-out: Activity
# NCI-H23 [9] = assay: Cytotoxicity against human NCI-H23 cells assessed as cell growth at 0.1 uM after 48 hrs by sulforhodamine B assay relative to control; type: functional; details: NCI-H23, 48 h, read-out: Activity
# MDA-MB-435 = assay: Cytotoxicity against human MDA-MB-435 cells assessed as cell growth at 0.1 uM after 48 hrs by sulforhodamine B assay relative to control; type: functional; details: MDA-MB-435, 48 h, read-out: Activity
# ACHN = assay: Cytotoxicity against human ACHN cells assessed as cell growth at 0.1 uM after 48 hrs by sulforhodamine B assay relative to control; type: functional; details: read-out: Activity
# MDA-MB-231 [10] = assay: Cytotoxicity against human MDA-MB-231 cells assessed as cell growth at 0.1 uM after 48 hrs by sulforhodamine B assay relative to control; type: functional; details: MDA-MB-231, 48 h, read-out: Activity
# MDA-MB-468 [11] = assay: Cytotoxicity against human MDA-MB-468 cells assessed as cell growth at 0.1 uM after 48 hrs by sulforhodamine B assay relative to control; type: functional; details: MDA-MB-468, 48 h, read-out: Activity
# NCI-H23 [12] = assay: Cytotoxicity against human NCI-H23 cells assessed as cell growth at 1 uM after 48 hrs by sulforhodamine B assay relative to control; type: functional; details: NCI-H23, 48 h, read-out: Activity
# OVCAR-8 [13] = assay: Cytotoxicity against human OVCAR8 cells assessed as cell growth at 1 uM after 48 hrs by sulforhodamine B assay relative to control; type: functional; details: OVCAR-8, 48 h, read-out: Activity
# PC-3 = assay: Cytotoxicity against human PC3 cells assessed as cell growth at 1 uM after 48 hrs by sulforhodamine B assay relative to control; type: functional; details: PC-3, 48 h, read-out: Activity
# HL-60(TB) = assay: Cytotoxicity against human HL-60(TB) cells assessed as cell growth at 10 uM after 48 hrs by sulforhodamine B assay relative to control; type: functional; details: HL-60, 48 h, read-out: Activity
# HCC 2998 = assay: Cytotoxicity against human HCC2998 cells assessed as cell growth at 10 uM after 48 hrs by sulforhodamine B assay relative to control; type: functional; details: HCC 2998, 48 h, read-out: Activity
# KM12 = assay: Cytotoxicity against human KM12 cells assessed as cell growth at 10 uM after 48 hrs by sulforhodamine B assay relative to control; type: functional; details: KM12, 48 h, read-out: Activity
# SK-MEL-28 [14] = assay: Cytotoxicity against human SK-MEL-28 cells assessed as cell growth at 10 uM after 48 hrs by sulforhodamine B assay relative to control; type: functional; details: SK-MEL-28, 48 h, read-out: Activity
# OVCAR-3 = assay: Cytotoxicity against human OVCAR3 cells assessed as cell growth at 10 uM after 48 hrs by sulforhodamine B assay relative to control; type: functional; details: OVCAR-3, 48 h, read-out: Activity
# OVCAR-8 [15] = assay: Cytotoxicity against human OVCAR8 cells assessed as cell growth at 10 uM after 48 hrs by sulforhodamine B assay relative to control; type: functional; details: OVCAR-8, 48 h, read-out: Activity
# A498 = assay: Cytotoxicity against human A498 cells assessed as cell growth at 10 uM after 48 hrs by sulforhodamine B assay relative to control; type: functional; details: A498, 48 h, read-out: Activity
# SN12C = assay: Cytotoxicity against human SN12C cells assessed as cell growth at 10 uM after 48 hrs by sulforhodamine B assay relative to control; type: functional; details: read-out: Activity
# MDA-MB-231 [16] = assay: Cytotoxicity against human MDA-MB-231 cells assessed as cell growth at 10 uM after 48 hrs by sulforhodamine B assay relative to control; type: functional; details: MDA-MB-231, 48 h, read-out: Activity
# BT-549 = assay: Cytotoxicity against human BT549 cells assessed as cell growth at 10 uM after 48 hrs by sulforhodamine B assay relative to control; type: functional; details: BT-549, 48 h, read-out: Activity
# K562 = assay: Cytotoxicity against human K562 cells assessed as cell growth at 100 uM after 48 hrs by sulforhodamine B assay relative to control; type: functional; details: K562, 48 h, read-out: Activity
# HCT-116 = assay: Cytotoxicity against human HCT116 cells assessed as cell growth at 100 uM after 48 hrs by sulforhodamine B assay relative to control; type: functional; details: HCT-116, 48 h, read-out: Activity
# SF-268 [17] = assay: Cytotoxicity against human SF268 cells assessed as cell growth at 100 uM after 48 hrs by sulforhodamine B assay relative to control; type: functional; details: SF-268, 48 h, read-out: Activity
compound,measurement,setting,value
COc1cc2c(cc1OC)C(=O)/C(=C/c1cc(-c3ccc4c(c3)OCO4)n[nH]1)C2,GI50,COLO 205 [1],1.7 µM
same,LC50,COLO 205 [1],5.68 µM
same,TGI,COLO 205 [1],3.11 µM
same,GI50,HCT-15,1.12 µM
same,LC50,HCT-15,7.07 µM
same,TGI,HCT-15,2.81 µM
same,GI50,U-251,1.09 µM
same,LC50,U-251,4.9 µM
same,TGI,U-251,2.31 µM
same,GI50,UACC-257,1.71 µM
same,LC50,UACC-257,5.72 µM
same,TGI,UACC-257,3.13 µM
same,IC50,MDA-MB-231 [2],1.6 µM
same,growth at 0.01 µM,OVCAR-8 [3],98%
same,growth at 0.01 µM,UACC-62,100%
same,growth at 0.01 µM,SK-MEL-28 [4],104%
same,growth at 0.01 µM,SF-268 [5],95%
same,growth at 0.01 µM,COLO 205 [6],98%
same,growth at 0.01 µM,MOLT-4,100%
same,growth at 0.01 µM,MDA-MB-231 [7],106%
same,growth at 0.01 µM,Hs-578T,95%
same,growth at 0.01 µM,MDA-MB-468 [8],93%
same,growth at 0.1 µM,SR,98%
same,growth at 0.1 µM,NCI-H23 [9],93%
same,growth at 0.1 µM,MDA-MB-435,96%
same,growth at 0.1 µM,ACHN,100%
same,growth at 0.1 µM,MDA-MB-231 [10],99%
same,growth at 0.1 µM,MDA-MB-468 [11],83%
same,growth at 1 µM,NCI-H23 [12],92%
same,growth at 1 µM,OVCAR-8 [13],84%
same,growth at 1 µM,PC-3,65%
same,growth at 10 µM,HL-60(TB),-29%
same,growth at 10 µM,HCC 2998,-88%
same,growth at 10 µM,KM12,-87%
same,growth at 10 µM,SK-MEL-28 [14],-92%
same,growth at 10 µM,OVCAR-3,-92%
same,growth at 10 µM,OVCAR-8 [15],-89%
same,growth at 10 µM,A498,-84%
same,growth at 10 µM,SN12C,-96%
same,growth at 10 µM,MDA-MB-231 [16],-87%
same,growth at 10 µM,BT-549,-94%
same,growth at 100 µM,K562,4%
same,growth at 100 µM,HCT-116,-52%
same,growth at 100 µM,SF-268 [17],-73%
COc1cc(C(=O)/C=C/c2cc(-c3cc(OC)c(OC)c(OC)c3)n[nH]2)cc(OC)c1OC,LC50,COLO 205 [1],5.59 µM
same,TGI,COLO 205 [1],3.13 µM
same,LC50,HCT-15,7.19 µM
same,TGI,HCT-15,3.29 µM
same,LC50,U-251,5.67 µM
same,TGI,U-251,2.96 µM
same,LC50,UACC-257,5.71 µM
same,TGI,UACC-257,2.99 µM
same,IC50,MDA-MB-231 [2],0.7 µM
same,growth at 0.01 µM,OVCAR-8 [3],100%
same,growth at 0.01 µM,UACC-62,97%
same,growth at 0.01 µM,SK-MEL-28 [4],101%
same,growth at 0.01 µM,SF-268 [5],99%
same,growth at 0.01 µM,COLO 205 [6],103%
same,growth at 0.01 µM,MOLT-4,104%
same,growth at 0.01 µM,MDA-MB-231 [7],110%
same,growth at 0.01 µM,Hs-578T,93%
same,growth at 0.01 µM,MDA-MB-468 [8],90%
same,growth at 0.1 µM,SR,93%
same,growth at 0.1 µM,NCI-H23 [9],101%
same,growth at 0.1 µM,MDA-MB-435,94%
same,growth at 0.1 µM,ACHN,100%
same,growth at 0.1 µM,MDA-MB-231 [10],104%
same,growth at 0.1 µM,MDA-MB-468 [11],84%
same,growth at 1 µM,NCI-H23 [12],97%
same,growth at 1 µM,OVCAR-8 [13],81%
same,growth at 1 µM,PC-3,74%
same,growth at 10 µM,HL-60(TB),-28%
same,growth at 10 µM,HCC 2998,-87%
same,growth at 10 µM,KM12,-90%
same,growth at 10 µM,SK-MEL-28 [14],-92%
same,growth at 10 µM,OVCAR-3,-96%
same,growth at 10 µM,OVCAR-8 [15],-76%
same,growth at 10 µM,A498,-64%
same,growth at 10 µM,SN12C,-86%
same,growth at 10 µM,MDA-MB-231 [16],-53%
same,growth at 10 µM,BT-549,-96%
same,growth at 100 µM,K562,1%
same,growth at 100 µM,HCT-116,-88%
same,growth at 100 µM,SF-268 [17],-75%
